These results are taken from paper PMC5063977 (The Journal of Biological Chemistry, 2016).

One assay concerns the target T1, RAMP2-CLR (AM1 receptor) (Homo sapiens, UniProt O60895+Q16602).
T1 construct: FLAG; expressed in transfected cells; host or cells: HEK-293 or HEK-293S cells, transient transfection, 1:1 RAMP:CLR
Put plainly: (Ca^2+)i mobilization, HEK-293 cells, RAMP2 + CLR. Type of assay: cell-based. Particulars: HEK293, percentage of maximal (Ca^2+)i release with 10 μM ionomycin, mean ± S.E., n = 5. As for the experimental part:
HEK-293 cells were transfected with FuGENE 6 (Roche Applied Science) in accordance with the manufacturer's instructions using a 1:3 (w:v) DNA:FuGENE ratio and a 1:1 ratio of RAMP to CLR. […] The transfected cell lines were grown for 24–48 h prior to assaying.
Transfected HEK-293 cells were grown to confluence in black, clear bottomed, 96-well plates. […] Cells were then washed followed by the addition of 100 μl of Ca^2+-free Hanks' balanced salt solution. […] Recordings were obtained every 0.5 s for 120 s. Peak magnitude was calculated using five-point smoothing followed by correction against background fluorescence. The peak was used to generate concentration-response curves and normalized relative to 10 μM ionomycin.
Data analysis for cAMP assays was performed in GraphPad Prism 6.0f (San Diego, CA). […] These values were then used to quantify signaling bias as change in log (τ/Ka) relative to the natural cognate ligand for the respective receptor ([41]). […] Statistical differences were analyzed using one-way ANOVA or Student's t test as appropriate with post hoc Bonferroni's or Dunnett's multiple comparisons, and p < 0.05 was considered significant. […] To quantitate the ligand-dependent response in the yeast system, a strain lacking GPA1 (MMY11), grown in rich medium, was used as a standard ([72]). […]

Another assay deals with T2, RAMP3-CLR (AM2 receptor) (Homo sapiens, UniProt O60896+Q16602).
T2 construct: FLAG; expressed in transfected cells; host or cells: HEK-293 or HEK-293S cells, transient transfection, 1:1 RAMP:CLR
Put plainly: S. cerevisiae growth assay, GPA1/Gαq chimera, RAMP3 + CLR. The assay is classed as cell-based. Particulars: percentage of yeast strain MMY11 (lacking GPA1); 24-h; mean ± S.E., n = 6. As for the experimental part:
FIGURE 7. […] Reporter gene activity was determined following 24-h stimulation. All data are expressed as percentage of the maximum response observed in yeast strain MMY11 and are means ± S.E. of n individual data sets. D, Bar chart showing the efficacy of each ligand for each RAMP-CLR combination at the Gαq chimera determined via application of the operational model of receptor agonism (Ref. [34] and Table 1). Data were determined as statistically different from the cognate ligand for each receptor (***, p < 0.001; ****, p < 0.0001) using one-way ANOVA with Bonferroni's post-test. E, signaling bias plots were calculated as ΔΔ(τ/Ka) values on a logarithmic scale for each ligand and for each chimera G protein for the three individual RAMP-CLR complexes.
General yeast procedures were performed as described previously ([22], [24]). […] Receptor signaling was measured using the yeast growth assay as described previously ([24]). […] A fluorescein signal was detected as an increase in fluorescence (excitation wavelength = 485 nm, emission wavelength = 535 nm) as a measure of growth. Different concentrations of ligand (0.01 nM–100 μM) were assayed using 96-well plates, and fluorescence was detected using a Tecan Infinite M200 microplate reader (Tecan Ultra Evolution, Reading, UK) or a Mithras LB 940 microplate reader (Berthold Technologies, Harpenden, UK) for 20 h. […]

T1 sequence (Q16602 23-461): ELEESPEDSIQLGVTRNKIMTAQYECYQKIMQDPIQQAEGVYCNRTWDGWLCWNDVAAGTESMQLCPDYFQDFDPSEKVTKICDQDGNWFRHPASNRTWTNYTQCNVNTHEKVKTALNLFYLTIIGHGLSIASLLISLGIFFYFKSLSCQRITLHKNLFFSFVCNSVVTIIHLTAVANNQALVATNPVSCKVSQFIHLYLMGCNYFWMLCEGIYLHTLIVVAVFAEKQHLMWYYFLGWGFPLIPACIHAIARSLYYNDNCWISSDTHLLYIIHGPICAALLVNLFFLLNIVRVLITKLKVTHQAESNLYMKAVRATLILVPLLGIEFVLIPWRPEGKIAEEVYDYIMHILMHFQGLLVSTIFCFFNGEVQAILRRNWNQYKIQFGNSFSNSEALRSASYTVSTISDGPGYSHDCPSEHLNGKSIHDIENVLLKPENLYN
T1 sequence (O60895 43-175): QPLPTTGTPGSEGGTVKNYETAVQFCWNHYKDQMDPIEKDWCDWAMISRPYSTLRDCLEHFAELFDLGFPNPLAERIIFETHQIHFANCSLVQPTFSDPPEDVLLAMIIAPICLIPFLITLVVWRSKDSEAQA
T2 sequence (Q16602 23-461): as the sequence (Q16602 23-461) above
T2 sequence (O60896 24-148): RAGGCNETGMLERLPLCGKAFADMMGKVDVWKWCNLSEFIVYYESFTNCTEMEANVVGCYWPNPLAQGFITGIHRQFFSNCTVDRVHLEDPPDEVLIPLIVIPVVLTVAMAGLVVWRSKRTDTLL

Regarding `CSCC[C@H](NC(=O)[C@H](CC(C)C)NC(=O)[C@H](CCC(N)=O)NC(=O)[C@H](Cc1c[nH]c2ccccc12)NC(=O)[C@H](CC(C)C)NC(=O)[C@H](CCCNC(=N)N)NC(=O)[C@H](Cc1c[nH]cn1)NC(=O)[C@H](CO)NC(=O)[C@H](CC(C)C)NC(=O)[C@H](CC(N)=O)NC(=O)[C@H](CCC(N)=O)NC(=O)[C@@H](NC(=O)[C@H](CCC(N)=O)NC(=O)[C@@H]1CSSC[C@H](NC(=O)CNC(=O)[C@@H](NC(=O)[C@H](CCCNC(=N)N)NC(=O)[C@H](CC(C)C)NC(=O)[C@H](CC(C)C)NC(=O)[C@H](CCC(N)=O)NC(=O)[C@H](C)NC(=O)[C@H](CCC(N)=O)NC(=O)[C@@H](N)[C@@H](C)O)C(C)C)C(=O)N[C@@H](C(C)C)C(=O)N[C@@H](CC(C)C)C(=O)NCC(=O)N[C@@H]([C@@H](C)O)C(=O)N1)C(C)C)C(=O)NCC(=O)N1CCC[C@H]1C(=O)N[C@@H](C)C(=O)NCC(=O)N[C@@H](CCCNC(=N)N)C(=O)N[C@@H](CCC(N)=O)C(=O)N[C@@H](CC(=O)O)C(=O)N[C@@H](CO)C(=O)N[C@@H](C)C(=O)N1CCC[C@H]1C(=O)N[C@H](C(=O)N[C@@H](CC(=O)O)C(=O)N1CCC[C@H]1C(=O)N[C@@H](CO)C(=O)N[C@@H](CO)C(=O)N1CCC[C@H]1C(=O)N[C@@H](Cc1c[nH]cn1)C(=O)N[C@@H](CO)C(=O)N[C@@H](Cc1ccc(O)cc1)C(N)=O)C(C)C` [AM2, adrenomedullin 2], the Emax on RAMP2-CLR (AM1 receptor) was found to be 44.4 ± 7.1%. On to `CC[C@H](C)[C@H](NC(=O)[C@H](CCC(N)=O)NC(=O)[C@H](Cc1c[nH]cn1)NC(=O)[C@H](C)NC(=O)[C@H](CC(C)C)NC(=O)[C@H](CCCCN)NC(=O)[C@H](CCC(N)=O)NC(=O)[C@@H](NC(=O)[C@@H](NC(=O)[C@@H]1CSSC[C@H](NC(=O)CNC(=O)[C@H](Cc2ccccc2)NC(=O)[C@H](CO)NC(=O)[C@H](CCCNC(=N)N)NC(=O)[C@H](CC(C)C)NC(=O)CNC(=O)[C@H](CCC(N)=O)NC(=O)[C@H](Cc2ccccc2)NC(=O)[C@H](CC(N)=O)NC(=O)[C@H](CC(N)=O)NC(=O)[C@H](CCSC)NC(=O)[C@H](CO)NC(=O)[C@H](CCC(N)=O)NC(=O)[C@H](CCCNC(=N)N)NC(=O)[C@@H](N)Cc2ccc(O)cc2)C(=O)N[C@@H](CCCNC(=N)N)C(=O)N[C@@H](Cc2ccccc2)C(=O)NCC(=O)N[C@@H]([C@@H](C)O)C(=O)N1)[C@@H](C)O)C(C)C)C(=O)N[C@@H](Cc1ccc(O)cc1)C(=O)N[C@@H](CCC(N)=O)C(=O)N[C@@H](Cc1ccccc1)C(=O)N[C@H](C(=O)N[C@@H](CC(=O)O)C(=O)N[C@@H](CCCCN)C(=O)N[C@@H](CC(=O)O)C(=O)N[C@@H](CCCCN)C(=O)N[C@@H](CC(=O)O)C(=O)N[C@@H](CC(N)=O)C(=O)N[C@H](C(=O)N[C@@H](C)C(=O)N1CCC[C@H]1C(=O)N[C@@H](CCCNC(=N)N)C(=O)N[C@@H](CO)C(=O)N[C@@H](CCCCN)C(=O)N[C@H](C(=O)N[C@@H](CO)C(=O)N1CCC[C@H]1C(=O)N[C@@H](CCC(N)=O)C(=O)NCC(=O)N[C@@H](Cc1ccc(O)cc1)C(N)=O)[C@@H](C)CC)C(C)C)[C@@H](C)O` [AM, adrenomedullin], for which the Emax on RAMP3-CLR (AM2 receptor) was 25.6 ± 2%.
